Test results taken from patent publication US10696672B2 (Pliant Therapeutics, Inc., priority 2016, dated 2020).

These molecules were tested against recombinant human integrin αvβ6 (Homo sapiens (Human), UniProt P06756+P18564) (assay: Solid phase integrin αvβ6 binding assay). Details: plate-coated integrin; recombinant TGFβ1 LAP 0.67 ug/ml as ligand; 2 hours at 25° C.; read-out: αvβ6 Inhibition IC50 (nM) - range.
recombinant human integrin αvβ6, sequence (P06756 31-992): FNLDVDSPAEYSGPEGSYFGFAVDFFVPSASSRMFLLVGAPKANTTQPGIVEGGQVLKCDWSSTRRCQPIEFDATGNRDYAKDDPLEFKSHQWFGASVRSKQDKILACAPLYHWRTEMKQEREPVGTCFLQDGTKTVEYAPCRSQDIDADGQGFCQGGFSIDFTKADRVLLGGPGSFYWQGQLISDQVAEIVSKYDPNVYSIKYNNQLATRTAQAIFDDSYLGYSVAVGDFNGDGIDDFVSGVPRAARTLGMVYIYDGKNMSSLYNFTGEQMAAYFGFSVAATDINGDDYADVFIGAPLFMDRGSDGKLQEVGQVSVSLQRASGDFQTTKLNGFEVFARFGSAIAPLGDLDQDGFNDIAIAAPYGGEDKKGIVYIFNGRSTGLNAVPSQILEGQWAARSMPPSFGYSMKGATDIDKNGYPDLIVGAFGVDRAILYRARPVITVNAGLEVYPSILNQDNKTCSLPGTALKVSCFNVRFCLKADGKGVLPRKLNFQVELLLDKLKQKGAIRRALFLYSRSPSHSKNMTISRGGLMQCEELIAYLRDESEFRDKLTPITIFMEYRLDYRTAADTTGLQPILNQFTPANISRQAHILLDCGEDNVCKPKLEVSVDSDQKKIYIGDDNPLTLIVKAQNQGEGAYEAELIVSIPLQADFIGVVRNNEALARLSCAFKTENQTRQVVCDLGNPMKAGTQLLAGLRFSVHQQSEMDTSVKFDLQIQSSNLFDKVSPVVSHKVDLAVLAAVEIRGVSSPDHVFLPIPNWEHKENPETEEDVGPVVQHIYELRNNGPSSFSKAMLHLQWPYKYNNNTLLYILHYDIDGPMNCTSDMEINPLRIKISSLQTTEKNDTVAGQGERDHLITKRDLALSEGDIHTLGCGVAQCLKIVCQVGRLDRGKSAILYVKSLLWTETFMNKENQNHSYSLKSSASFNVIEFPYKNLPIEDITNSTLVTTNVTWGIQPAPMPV
recombinant human integrin αvβ6, sequence (P18564 22-707): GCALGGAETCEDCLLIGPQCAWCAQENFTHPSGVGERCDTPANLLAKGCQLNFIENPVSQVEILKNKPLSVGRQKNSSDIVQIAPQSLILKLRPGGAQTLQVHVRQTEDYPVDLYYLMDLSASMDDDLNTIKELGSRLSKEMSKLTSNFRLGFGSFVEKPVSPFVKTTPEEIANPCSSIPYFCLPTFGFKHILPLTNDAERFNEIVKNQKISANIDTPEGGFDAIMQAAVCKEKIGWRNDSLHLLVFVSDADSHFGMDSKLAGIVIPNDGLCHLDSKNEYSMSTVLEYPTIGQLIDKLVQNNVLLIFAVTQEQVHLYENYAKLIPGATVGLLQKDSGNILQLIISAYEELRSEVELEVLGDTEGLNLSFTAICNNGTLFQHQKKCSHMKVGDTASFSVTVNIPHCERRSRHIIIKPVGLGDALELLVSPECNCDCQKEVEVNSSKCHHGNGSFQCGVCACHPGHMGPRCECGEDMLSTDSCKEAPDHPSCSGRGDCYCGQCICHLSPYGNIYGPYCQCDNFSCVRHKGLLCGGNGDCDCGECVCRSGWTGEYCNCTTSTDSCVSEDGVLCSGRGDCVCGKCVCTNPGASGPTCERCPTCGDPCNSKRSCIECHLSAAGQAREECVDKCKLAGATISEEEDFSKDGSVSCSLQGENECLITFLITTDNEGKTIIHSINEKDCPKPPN
Procedure: Example B1—Solid Phase Integrin αvβ6 Binding Assay
Microplates were coated with recombinant human integrin αvβ6 (2 ug/ml) in PBS (100 ul/well 25° C., overnight). The coating solution was removed, washed with wash buffer (0.05% Tween 20; 0.5 mM MnCl2; in 1×TBS). Plate was blocked with 200 ul/well of Block Buffer (1% BSA; 5% sucrose; 0.5 mM MnCl2; in 1×TBS) at 37° C. for 2 h. Dilutions of testing compounds and recombinant TGFβ1 LAP (0.67 ug/ml) in binding buffer (0.05% BSA; 2.5% sucrose; 0.5 mM MnCl2; in 1×TBS) were added. The plate was incubated for 2 hours at 25° C., washed, and incubated for 1 hour with Biotin-Anti-hLAP. Bound antibody was detected by peroxidase-conjugated streptavidin. The IC50 values for testing compounds were calculated by a four-parameter logistic regression.
The compounds tested were compound samples prepared according to procedures described in the Synthetic Examples section, with the stereochemical purity as indicated in the Examples indicated.
`Cn1ncc2cccc(C(=O)N[C@@H](CCN3CC[C@@H](CCc4ccc5c(n4)NCCC5)C3)C(=O)O)c21` [Compound 28a, (S)-2-(1-methyl-1H-indazole-7-carboxamido)-4-((R)-3-(2-(5,6,7,8-tetrahydro-1,8-naphthyridin-2-yl)ethyl)pyrrolidin-1-yl)butanoic acid] was tested, and the IC50 was < 50 nM. For `O=C(N[C@@H](CCN1CC[C@@H](CCc2ccc3c(n2)NCCC3)C1)C(=O)O)c1ccc2cnn(C(F)F)c2c1` [Compound 29a, (S)-2-(1-(difluoromethyl)-1H-indazole-6-carboxamido)-4-((R)-3-(2-(5,6,7,8-tetrahydro-1,8-naphthyridin-2-yl)ethyl)pyrrolidin-1-yl)butanoic acid], the IC50 was < 50 nM. For `O=C(N[C@@H](CCN1CC[C@@H](CCc2ccc3c(n2)NCCC3)C1)C(=O)O)c1ccc2c(cnn2C(F)F)c1` [Compound 30a, (S)-2-(1-(difluoromethyl)-1H-indazole-5-carboxamido)-4-((R)-3-(2-(5,6,7,8-tetrahydro-1,8-naphthyridin-2-yl)ethyl)pyrrolidin-1-yl)butanoic acid], the IC50 was < 50 nM. With `O=C(NC1CCN(CC[C@H](NC(=O)C2CCC(F)(F)CC2)C(=O)O)CC1)c1ccc2c(n1)NCCC2` [Compound 33] the IC50 was > 1000 nM. With `O=C(N[C@@H](CCN1CC[C@@H](CCc2ccc3c(n2)NCCC3)C1)C(=O)O)c1cccc2[nH]ncc12` [Compound 35] the IC50 was < 50 nM. `O=C(O)[C@H](CCN1CC[C@@H](CCc2ccc3c(n2)NCCC3)C1)NC(=O)[C@@H]1CCCN1Cc1ccccc1` [Compound 36] was tested, and the IC50 was < 50 nM. With `CC(C)(C(=O)N[C@@H](CCN1CC[C@@H](CCc2ccc3c(n2)NCCC3)C1)C(=O)O)c1cccnc1` [Compound 37] the IC50 was < 50 nM. For `O=C(N[C@@H](CCN1CC[C@@H](CCc2ccc3c(n2)NCCC3)C1)C(=O)O)C1CCOCC1` [Compound 38], the IC50 was < 50 nM. `O=C(N[C@@H](CCN1CC(CCc2ccc3c(n2)NCCC3)C(F)(F)C1)C(=O)O)c1ccccc1` (stereo partly drawn) [Compound 39] gave an IC50 of 50 to 250 nM. `CC(C)(C)OC(=O)N[C@@H](CCN1CC(CCc2ccc3c(n2)NCCC3)CC(F)(F)C1)C(=O)O` (stereo partly drawn) [Compound 40] was tested, and the IC50 was 250 to 1000 nM. Molecule `O=C(N[C@@H](CCN1CC(CCc2ccc3c(n2)NCCC3)CC(F)(F)C1)C(=O)O)c1ccccc1` (stereo partly drawn) [Compound 41] has an IC50 of 50 to 250 nM. Molecule `Cc1cc(C)n(-c2cccc(C(=O)N[C@@H](CCN3CC(CCc4ccc5c(n4)NCCC5)CC(F)(F)C3)C(=O)O)c2)n1` (stereo partly drawn) [Compound 42] has an IC50 of 250 to 1000 nM. With `O=C(O)[C@H](CCN1CC[C@@H](CCc2ccc3c(n2)NCCC3)C1)NC(=O)[C@@H]1CCCN1c1ccccc1` [Compound 43] the IC50 was < 50 nM. For `CC(C)(C(=O)N[C@@H](CCN1CC[C@@H](CCc2ccc3c(n2)NCCC3)C1)C(=O)O)c1ccccc1` [Compound 44], the IC50 was < 50 nM. With `CC(C)(Cc1ccccc1)C(=O)N[C@@H](CCN1CC[C@@H](CCc2ccc3c(n2)NCCC3)C1)C(=O)O` [Compound 45] the IC50 was < 50 nM. With `O=C(N[C@@H](CCN1CC[C@@H](CCc2ccc3c(n2)NCCC3)C1)C(=O)O)[C@H]1CCN(c2ccccn2)C1` [Compound 46] the IC50 was < 50 nM. `O=C(N[C@@H](CCN1CC[C@@H](CCc2ccc3c(n2)NCCC3)C1)C(=O)O)[C@@H]1CCN(c2ccccn2)C1` [Compound 47] was tested, and the IC50 was < 50 nM. With `N#Cc1cccc(C(=O)N[C@@H](CCN2CC[C@@H](CCc3ccc4c(n3)NCCC4)C2)C(=O)O)c1` [Compound 48] the IC50 was < 50 nM. For `Cn1nccc1C(=O)N[C@@H](CCN1CC[C@@H](CCc2ccc3c(n2)NCCC3)C1)C(=O)O` [Compound 49], the IC50 was < 50 nM. `O=C(N[C@@H](CCN1CC[C@@H](CCc2ccc3c(n2)NCCC3)C1)C(=O)O)c1cnccn1` [Compound 50] was tested, and the IC50 was < 50 nM. In the case of `O=C(N[C@@H](CCN1CC[C@@H](CCc2ccc3c(n2)NCCC3)C1)C(=O)O)c1cccs1` [Compound 51], the IC50 is reported as < 50 nM. `O=C(N[C@@H](CCN1CCC[C@@](F)(CCc2ccc3c(n2)NCCC3)C1)C(=O)O)c1ccccc1` [Compound 52] showed an IC50 of 50 to 250 nM. `Cc1cc(C)n(-c2cccc(C(=O)N[C@@H](CCN3CCC[C@@](F)(CCc4ccc5c(n4)NCCC5)C3)C(=O)O)c2)n1` [Compound 53] was tested, and the IC50 was < 50 nM. With `O=C(N[C@@H](CCN1CCCC(CCc2ccc3c(n2)NCCC3)C1)C(=O)O)c1ccccc1` (stereo partly drawn) [Compound 54] the IC50 was < 50 nM. For `O=C(N[C@@H](CCN1CC[C@@H](CCc2ccc3c(n2)NCCC3)C1)C(=O)O)c1cccc(-c2cccs2)c1` [Compound 55], the IC50 was < 50 nM. With `O=C(N[C@@H](CCN1CC[C@@H](CCc2ccc3c(n2)NCCC3)C1)C(=O)O)c1cccc(-c2ccccc2)c1` [Compound 56] the IC50 was < 50 nM. `Cn1nccc1-c1cccc(C(=O)N[C@@H](CCN2CC[C@@H](CCc3ccc4c(n3)NCCC4)C2)C(=O)O)c1` [Compound 57] was tested, and the IC50 was < 50 nM. For `Cn1cc(-c2cccc(C(=O)N[C@@H](CCN3CC[C@@H](CCc4ccc5c(n4)NCCC5)C3)C(=O)O)c2)cn1` [Compound 58], the IC50 was < 50 nM. `O=C(N[C@@H](CCN1CC[C@@H](CCc2ccc3c(n2)NCCC3)C1)C(=O)O)c1cccc(-c2ncco2)c1` [Compound 59] was tested, and the IC50 was < 50 nM. `CC(C)n1ncc2c(C(=O)N[C@@H](CCN3CC[C@@H](CCc4ccc5c(n4)NCCC5)C3)C(=O)O)cccc21` [Compound 60] was tested, and the IC50 was < 50 nM. With `CC(C)Cn1ncc2c(C(=O)N[C@@H](CCN3CC[C@@H](CCc4ccc5c(n4)NCCC5)C3)C(=O)O)cccc21` [Compound 61] the IC50 was < 50 nM. `O=C(N[C@@H](CCN1CCC[C@@](F)(CCc2ccc3c(n2)NCCC3)C1)C(=O)O)c1cccc(F)c1Cl` [Compound 62] gave an IC50 of 50 to 250 nM. With `O=C(N[C@@H](CCN1CC[C@@](F)(CCc2ccc3c(n2)NCCC3)C1)C(=O)O)c1c(Cl)cccc1Cl` [Compound 63] the IC50 was 50 to 250 nM. For `O=C(N[C@@H](CCN1CC[C@](F)(CCc2ccc3c(n2)NCCC3)C1)C(=O)O)c1c(Cl)cccc1Cl` [Compound 64], the IC50 was 50 to 250 nM. In the case of `O=C(N[C@@H](CCN1CC[C@@H](CCc2ccc3c(n2)NCCC3)C1)C(=O)O)c1cccc(-c2cscn2)c1` [Compound 65], the IC50 is reported as 50 to 250 nM. In the case of `O=C(N[C@@H](CCN1CC[C@@H](CCc2ccc3c(n2)NCCC3)C1)C(=O)O)c1cccc(-c2cncs2)c1` [Compound 66], the IC50 is reported as < 50 nM. `O=C(N[C@@H](CCN1CC[C@@H](CCc2ccc3c(n2)NCCC3)C1)C(=O)O)c1cccc(F)c1F` [Compound 67] was tested, and the IC50 was < 50 nM. For `CC(C)(C)c1cccc(C(=O)N[C@@H](CCN2CC[C@@H](CCc3ccc4c(n3)NCCC4)C2)C(=O)O)c1` [Compound 68], the IC50 was < 50 nM. `Cn1cc(C(=O)N[C@@H](CCN2CC[C@@H](CCc3ccc4c(n3)NCCC4)C2)C(=O)O)cn1` [Compound 69] gave an IC50 of 50 to 250 nM. In the case of `O=C(N[C@@H](CCN1CC[C@@H](CCc2ccc3c(n2)NCCC3)C1)C(=O)O)c1ccncn1` [Compound 70], the IC50 is reported as < 50 nM. `CC(C)n1cc2c(C(=O)N[C@@H](CCN3CC[C@@H](CCc4ccc5c(n4)NCCC5)C3)C(=O)O)cccc2n1` [Compound 71] was tested, and the IC50 was < 50 nM. `CC(C)Cn1cc2c(C(=O)N[C@@H](CCN3CC[C@@H](CCc4ccc5c(n4)NCCC5)C3)C(=O)O)cccc2n1` [Compound 72] was tested, and the IC50 was < 50 nM. In the case of `CCCCC(=O)N1CCCC[C@H]1C(=O)N[C@@H](CCN1CC[C@@H](CCc2ccc3c(n2)NCCC3)C1)C(=O)O` [Compound 73], the IC50 is reported as < 50 nM. In the case of `O=C(O)[C@H](CCN1CC[C@@H](CCc2ccc3c(n2)NCCC3)C1)NC(=O)[C@@H]1CCCCN1C(=O)C1CCC1` [Compound 74], the IC50 is reported as < 50 nM. For `O=C(Cc1ccccc1Cl)N[C@@H](CCN1CC[C@@H](CCc2ccc3c(n2)NCCC3)C1)C(=O)O` [Compound 75], the IC50 was < 50 nM. In the case of `O=C(N[C@@H](CCN1CC[C@@H](CCc2ccc3c(n2)NCCC3)C1)C(=O)O)c1cc(F)cc(C(F)(F)F)c1` [Compound 76], the IC50 is reported as < 50 nM. With `CC(C)(O)CN1CCC[C@H]1C(=O)N[C@@H](CCN1CC[C@@H](CCc2ccc3c(n2)NCCC3)C1)C(=O)O` [Compound 77] the IC50 was < 50 nM. In the case of `CCCCC(=O)N1CCC[C@@H](C(=O)N[C@@H](CCN2CC[C@@H](CCc3ccc4c(n3)NCCC4)C2)C(=O)O)C1` [Compound 78], the IC50 is reported as < 50 nM. `CC(C)(C)C(=O)N1CCC[C@@H](C(=O)N[C@@H](CCN2CC[C@@H](CCc3ccc4c(n3)NCCC4)C2)C(=O)O)C1` [Compound 79] was tested, and the IC50 was < 50 nM. With `COC(=O)N1CCC[C@@H](C(=O)N[C@@H](CCN2CC[C@@H](CCc3ccc4c(n3)NCCC4)C2)C(=O)O)C1` [Compound 80] the IC50 was < 50 nM. `O=C(O)[C@H](CCN1CC[C@@H](CCc2ccc3c(n2)NCCC3)C1)NC(=O)[C@@H]1CCN1Cc1ccccc1` [Compound 81] was tested, and the IC50 was 50 to 250 nM. With `Cn1nc(-c2ccccc2)c2cccc(C(=O)N[C@@H](CCN3CC[C@@H](CCc4ccc5c(n4)NCCC5)C3)C(=O)O)c21` [Compound 82] the IC50 was < 50 nM. In the case of `O=C(N[C@H](CCN1CC[C@@H](CCc2ccc3c(n2)NCCC3)C1)C(=O)O)c1cccc(-c2ccccc2)c1` [Compound 83], the IC50 is reported as < 50 nM. For `O=C(N[C@H](CCN1CC[C@@H](CCc2ccc3c(n2)NCCC3)C1)C(=O)O)c1cccc(-c2cncs2)c1` [Compound 84], the IC50 was < 50 nM. In the case of `O=C(N[C@H](CCN1CC[C@@H](CCc2ccc3c(n2)NCCC3)C1)C(=O)O)c1cccc(-c2cscn2)c1` [Compound 85], the IC50 is reported as < 50 nM. In the case of `Cn1nccc1-c1cccc(C(=O)N[C@H](CCN2CC[C@@H](CCc3ccc4c(n3)NCCC4)C2)C(=O)O)c1` [Compound 86], the IC50 is reported as < 50 nM. For `Cn1cc(-c2cccc(C(=O)N[C@H](CCN3CC[C@@H](CCc4ccc5c(n4)NCCC5)C3)C(=O)O)c2)cn1` [Compound 87], the IC50 was < 50 nM.
